Assay results: patent publication US20250114312A1, “TREATMENT OF COPPER DISORDERS” (PhilERA New Zealand Ltd., priority 2021, published 2025)
Values belong to the molecule of their own block, whether it stands above or below them.

Experiments:
[1] = in-life phase, albino and pigmented rats, 10 mg/kg oral
[2] = human, in vivo
Caco-2 barrier model = experiment: Permeability in Caco-2 barrier model; conditions: for Papp, B-A direction: compound alone
Procedure: (§1) Digoxin was used as marker to check for Pgp activity in the cultures. […] Samples were recovered from receptor compartments after 0, 15, 30, 45, 60, and 120 minutes, and further analyzed by liquid scintillation counting. Samples were also recovered a time 0 and 120 minutes from the donor compartments for mass balance evaluation. Each condition was performed in 3 replicated transwell filters in the presence of the Caco-2 barrier.

[3] = Permeability in Caco-2 barrier model; conditions: human, Caco-2, pH 7.4
Procedure: as §1

urinary copper excretion = conditions: in vivo
Pgp = Pgp (Homo sapiens, UniProt P08183); conditions: Caco-2
Pgp, sequence (P08183 whole entry): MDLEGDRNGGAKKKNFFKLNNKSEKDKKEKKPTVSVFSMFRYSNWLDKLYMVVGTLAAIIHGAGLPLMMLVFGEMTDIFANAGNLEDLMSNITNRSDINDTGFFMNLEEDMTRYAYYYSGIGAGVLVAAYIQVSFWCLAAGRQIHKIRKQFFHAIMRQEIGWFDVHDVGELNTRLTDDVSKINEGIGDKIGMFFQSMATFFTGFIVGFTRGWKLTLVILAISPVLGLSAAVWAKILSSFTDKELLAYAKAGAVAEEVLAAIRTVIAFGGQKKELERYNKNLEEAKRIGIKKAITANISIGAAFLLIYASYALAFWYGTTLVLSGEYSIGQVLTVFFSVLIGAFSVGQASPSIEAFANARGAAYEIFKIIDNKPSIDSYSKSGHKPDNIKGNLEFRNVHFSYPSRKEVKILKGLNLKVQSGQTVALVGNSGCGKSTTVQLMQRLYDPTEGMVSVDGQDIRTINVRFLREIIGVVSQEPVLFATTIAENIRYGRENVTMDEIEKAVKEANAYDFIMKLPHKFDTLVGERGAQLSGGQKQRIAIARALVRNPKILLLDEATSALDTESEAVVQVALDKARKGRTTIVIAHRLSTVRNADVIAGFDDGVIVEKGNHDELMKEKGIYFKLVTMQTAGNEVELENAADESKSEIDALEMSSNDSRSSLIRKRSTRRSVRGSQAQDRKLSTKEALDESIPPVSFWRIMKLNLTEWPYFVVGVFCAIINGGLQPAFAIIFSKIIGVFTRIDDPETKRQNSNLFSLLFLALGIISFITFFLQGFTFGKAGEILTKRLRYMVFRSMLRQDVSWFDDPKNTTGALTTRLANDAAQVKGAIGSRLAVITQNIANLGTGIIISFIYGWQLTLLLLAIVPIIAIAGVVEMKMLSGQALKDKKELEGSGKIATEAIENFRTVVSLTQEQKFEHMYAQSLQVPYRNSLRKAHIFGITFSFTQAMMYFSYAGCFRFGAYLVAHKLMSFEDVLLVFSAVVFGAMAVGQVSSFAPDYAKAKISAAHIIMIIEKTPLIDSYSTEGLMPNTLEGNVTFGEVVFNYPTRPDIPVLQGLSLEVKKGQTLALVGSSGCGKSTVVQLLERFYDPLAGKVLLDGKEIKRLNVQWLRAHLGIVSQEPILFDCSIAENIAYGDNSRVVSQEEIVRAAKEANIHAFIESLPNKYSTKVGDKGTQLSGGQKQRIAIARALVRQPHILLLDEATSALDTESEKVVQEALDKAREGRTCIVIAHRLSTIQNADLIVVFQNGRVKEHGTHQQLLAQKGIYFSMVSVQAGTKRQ

Molecule: NCCNCCNCCN.O=C(O)CCC(=O)O.O=C(O)CCC(=O)O
- Animal observations attributable to administration [1]: No animal observations

Molecule: CC(=O)NCCNCCNCCNC(C)=O [DAT, N1,N10-diacetyltriethylenetetramine]
- Median Tmax of DAT [2]: 5.0 to 6.0 h
- θ-VP,D/F/frM/frD Apparent volume for DAT (human, in vivo): 197 L

Molecule: C[C@H]1O[C@@H](O[C@H]2[C@@H](O)C[C@H](O[C@H]3[C@@H](O)C[C@H](O[C@H]4CC[C@@]5(C)[C@H](CC[C@@H]6[C@@H]5C[C@@H](O)[C@]5(C)[C@@H](C7=CC(=O)OC7)CC[C@]65O)C4)O[C@@H]3C)O[C@@H]2C)C[C@H](O)[C@@H]1O [Digoxin]
- Asymmetry Index (Caco-2 barrier model; B-A/A-B): 8.06
- Papp, B-A direction (Caco-2 barrier model): 6.08 ×10⁻⁶ cm/s
- Papp A→B at 1 h, 0.02 mM [3]: 0.75 ×10⁻⁶ cm/s

- θ-MTT Mean transit time for MAT formation (human, in vivo): 0.381 h
- θ-VP,M/F/frM Apparent volume for MAT (human, in vivo): 426 L
Molecule: CC(=O)NCCNCCNCCN [MAT, N1-acetyltriethylenetetramine]

Molecule: NCCNCCNCCN.O=C(O)CCC(=O)O.O=C(O)CCC(=O)O [PX811019, triethylenetetramine disuccinate]
- MAT t½ ([2]; po): 15.8239 h
- DAT t½ Predicted (human, in vivo, po): 0.390 h
- Papp, B-A direction (Caco-2 barrier model; disuccinate): No permeability was observed
- Predicted absorption in humans (Caco-2 barrier model; estimated from in vitro Papp value): approximately 70%
- Difference in urinary excretion of copper due to formulation (urinary copper excretion): no clear difference
- Level of cupriuresis versus dose (urinary copper excretion; po): approximately the same at 435 and 1305 mg PX811019 and increased at the highest dose of 2175 mg
- Pgp substrate (Pgp): would not be a Pgp substrate

Molecule: NCCNCCNCCN [TETA, Triethylenetetramine, reference compound]
- Increase of VT,T/F for every 100 mg difference from the 750 mg dose (human, in vivo): 6.37%
- Inter-occasion variability of F (human, in vivo): 43.7 (17.3) [5.5] %
- Inter-occasion variability of ka (human, in vivo): 69.4 (57.6) [16.3] %
- Slope (SL) of copper excretion versus TETA concentration (in vivo): 41.8 (mg/L)^−1
- θ-SL · ER0 Slope between TETA and Cu excretion rate (population mean): 24.3 (mg/L)^−1 · (μg/h)

- Papp of barrier quality markers (Caco-2 barrier model; Caco-2): lower than 1×10^−6 cm/s
Molecule: Lucifer yellow
